Measured values taken from patent publication US8951977B2, “Amorphous roxithromycin composition” (North-West University, priority 2011, dated 2015).
≈ marks a conversion by molar mass, not a printed value.

How the values were obtained:
[1] = Stability trial at increased temperature and 75% relative humidity for 4 weeks (TGA, XRPD, IR); format: physicochemical
Method: During further stability analysis, samples of both the raw material and amorphous form (Form-III) of roxithromycin were kept at 25 degrees Celsius and 75% relative humidity (RH) (FIG. 7); 30 degrees Celsius and 75% relative humidity (FIG. 8); and 40 degrees Celsius and 75% relative humidity, for a period of 4 weeks. The samples were analysed by thermogravimetric analysis (TGA) and percentage weight loss/gain was determined.
It is evident from FIGS. 7 and 8 that after week 4 of a stability trial an amount of approximately 2.5% moisture is absorbed by the samples. The TGA results obtained for the samples stored at 40° C./75% RH (FIG. 9) did however not show the same extent of moisture absorption as that obtained with the samples of FIGS. 7 and 8. […] No moisture-induced recrystallisations of the amorphous form were observed. […] The amorphous form (Form-III) could therefore be regarded as stable against increased temperatures and humidity.
The IR data illustrates that the absorbed moisture was not structurally absorbed within the molecule, but only absorbed on the surface of the structure. This is confirmed by the peak between wavenumbers 3580 to 3464 cm^−1 that represents the —OH bands of roxithromycin raw material and the lack of peaks in the amorphous form (Form-III) of roxithromycin. […]

[2] = Solubility of roxithromycin forms in buffer media and water, excess solid, 37 degrees Celsius, 24 h, HPLC assay; format: physicochemical; conditions: for solubility at 24 h: 37 °C, thermodynamic from solid, 37 degrees Celsius
Method: In further analysis of the novel Form-III, each of five replicate test tubes were filled with an excess of the amorphous form (Form-III) of roxithromycin and 10 ml of solubility medium. The process was performed with each of the following mediums: acetate buffer (pH 4.5), phosphate buffer (pH 6.8), distilled water and 0.1 M HCl. The phosphate buffer comprises potassium dihydrogen phosphate, disodium hydrogen phosphate and water. The acetate buffer comprises ammonium acetate, glacial acetic acid and water. This method was also used for testing the prior art anhydrous roxithromycin.
The test tubes were fixed to a rotating axis (54 rpm) and submerged in a water bath at 37 degrees Celsius±2 degrees Celsius for twenty-four hours. The contents of the test tubes were filtered through a 0.45 μm filter and subsequently the respective filtrates were diluted.
The concentrations of the four filtrates of amorphous form (Form-III) of roxithromycin and roxithromycin raw material were respectively determined by HPLC (high performance liquid chromatography) assay. The HPLC assay was performed utilising a mobile phase of 30 g/L ammonium dihydrogen phosphate buffer at pH 5.3. The pH was adjusted with sodium hydroxide solution. The mobile phase comprised of buffer (600) and acetonitrile (400). A Luna C18 150 mm×4.6 mm column was used with a flow rate of 1.0 ml/min and a wavelength of 205 nm. Validation of this method provided a linear regression, R^2, of 0.9998.

Structure (SMILES) | solid-state stability of the amorphous form ([1]; 25, 30 and 40 degrees Celsius, 75% RH, 4 weeks) | recrystallisation (XRPD) ([1]; storage four weeks at 40 degrees Celsius and 75% relative humidity) | solubility at 24 h ([2]; aqueous buffer, acetate buffer (pH 4.5)) | solubility at 24 h ([2]; aqueous buffer, phosphate buffer (pH 6.8)) | solubility at 24 h ([2]; distilled water) | stability in 0.1 M HCl ([2]; 0.1 M HCl solubility medium, results omitted for both forms)
CC[C@H]1OC(=O)[C@H](C)[C@@H](O[C@H]2C[C@@](C)(OC)[C@@H](O)[C@H](C)O2)[C@H](C)[C@@H](O[C@@H]2O[C@H](C)C[C@H](N(C)C)[C@H]2O)[C@](C)(O)C[C@@H](C)/C(=N\OCOCCOC)[C@H](C)[C@@H](O)[C@]1(C)O [Form-III, roxithromycin] | stable over a period of 4 weeks and did not recrystallise to a crystalline form | no recrystallisation | 1150 ± 6.5 µg/mL (≈ 1370 µM) | 208 ± 3.7 µg/mL (≈ 249 µM) | 8.6 ± 1.8 µg/mL (≈ 10.3 µM) | –
CC[C@H]1OC(=O)[C@H](C)[C@@H](O[C@H]2C[C@@](C)(OC)[C@@H](O)[C@H](C)O2)[C@H](C)[C@@H](O[C@@H]2O[C@H](C)C[C@H](N(C)C)[C@H]2O)[C@](C)(O)C[C@@H](C)/C(=N\OCOCCOC)[C@H](C)[C@@H](O)[C@]1(C)O [roxithromycin, 3R, 4S, 5S, 6R, 7R, 9R, 11S, 12R, 13S, 14R-6-[(2S,3R,4S,6R)-4-dimethylamino-3-hydroxy-6-methyloxan-2-yl]oxy-14-ethyl-7,12,13-trihydroxy-4-[(2R,4R,5S,6S)-5-hydroxy-4-methoxy-4,6-dimethyloxan-2-yl]oxy-10-(2-methoxyethoxymethoxyimino)-3,5,7,9,11,13-hexamethyl-1-oxacyclotetradecan-2-one] | – | – | – | – | – | rapid degradation
